Data reported in ChEMBL document CHEMBL1141419, “N-(5-Fluoro-2-phenoxyphenyl)-N-(2-[(131)I]iodo-5-me thoxybenzyl)acetamide: a potent iodinated radioligand for the peripheral-type benzodiazepine receptor in brain” (J Med Chem, 2007).

What was measured:
Translocator protein [1] = biological target: T1, Translocator protein (Rattus norvegicus, UniProt P16257); test: Displacement of [11C]PK-11195 from PBR in Sprague-Dawley rat brain; assay type: tissue-based
Rattus norvegicus = organism: Rattus norvegicus; test: Displacement of [11C]flumazenil from CBR in Sprague-Dawley rat brain
[2] = Stability in iv dosed ddy mouse brain after 30 min; assay type: ADME, organism-based; settings: read-out: Stability
[3] = Ratio of drug level in olfactory bulb against striatum in Sprague-Dawley rat after 30 mins; assay type: ADME, tissue-based; settings: in vivo, 0.5 h
[4] = Ratio of drug level in choroids plexus against striatum in Sprague-Dawley rat after 30 mins; assay type: ADME, tissue-based; settings: in vivo, 0.5 h
[5] = Distribution coefficient, log D at pH 7.4 by shake flask method; assay type: physicochemical; settings: octanol/water
Translocator protein [6] = biological target: T1, Translocator protein; test: Displacement of [11C]DAA1106 from PBR in Sprague-Dawley rat brain; assay type: tissue-based

T1 sequence (P16257 whole entry, looked up): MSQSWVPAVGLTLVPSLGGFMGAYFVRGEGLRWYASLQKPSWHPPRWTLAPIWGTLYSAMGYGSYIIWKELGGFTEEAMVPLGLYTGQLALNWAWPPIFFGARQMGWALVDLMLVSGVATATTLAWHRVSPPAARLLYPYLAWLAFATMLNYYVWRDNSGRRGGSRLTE

Compound | IC50 (Translocator protein [1]) [nM] | IC50 (Rattus norvegicus) [nM] | remaining at 0.5 h [2] [%] | Ratio [3] | Ratio [4] | logD [5] | IC50 (Translocator protein [6]) [nM]
COc1ccc(OC)c(CN(C(C)=O)c2cc(F)ccc2Oc2ccccc2)c1 | 1.3 | > 10000 |  |  |  |  | 
COc1ccc([131I])c(CN(C(C)=O)c2cc(F)ccc2Oc2ccccc2)c1 |  |  | 90 | 1.5 | 3.2 |  | 
COc1ccc(I)c(CN(C(C)=O)c2cc(F)ccc2Oc2ccccc2)c1 | 4.4 | > 10000 |  |  |  | 4.42 | 7.8
CCC(C)N(C)C(=O)c1cc2ccccc2c(-c2ccccc2Cl)n1 (centres undefined) |  | > 10000 |  |  |  |  | 
COc1ccc(OC)c(CN(C(C)=O)c2cc(I)ccc2Oc2ccccc2)c1 | 60.1 | > 10000 |  |  |  | 4.03 | 69.2
